How the values were obtained:
Assay type in all cases: cell-based
[1] = system: Aspergillus niger ATCC 6275; experiment: Agar incorporation test (MIC test); details: A. niger
Experimental: (§1) Determination of the Minimum Inhibiting Concentration (MIC) in the Agar Incorporation Test (MIC Test)
(§2) When the nutrient substrate has solidified, 10 μl portions of the following organism dilutions of the test strains in 0.85% NaCl solution are spotted onto the agar medium:
(§3) The plates are incubated at 37° C. for 24 hours (A.niger 3 days at 28° C.) and then the highest dilution of the test substance at which growth is just no longer discernible (corresponds to MIC) is determined.

[2] = system: Candida albicans ATCC 10231; experiment: Agar incorporation test (MIC test); details: C. albicans
Experimental: as §1, §2, §3

[3] = system: Corynebacterium xerosis ATCC 373; experiment: Agar incorporation test (MIC test); details: C. xerosis
Experimental: as §1, §2, §3

[4] = system: Escherichia coli NCTC 8196; experiment: Agar incorporation test (MIC test); details: E. coli
Experimental: as §1, §2, §3

[5] = system: Pseudomonas aeruginosa CIP A-22; experiment: Agar incorporation test (MIC test); details: P. aeruginosa
Experimental: as §1, §2, §3

[6] = system: Staphylococcus aureus ATCC 9144; experiment: Agar incorporation test (MIC test); details: S. aureus
Experimental: as §1, §2, §3

[7] = system: Staphylococcus epidermidis ATCC 12228; experiment: Agar incorporation test (MIC test); details: S. epidermidis
Experimental: as §1, §2, §3

[8] = system: Candida albicans ATCC 10231; experiment: Agar diffusion test; note: values in mm
Experimental: (§4) Determination of antimicrobial activity in the agar diffusion test [table] After the bacteria precultures have been incubated, they are diluted 1:100 with dilution medium. 3.5 ml of that dilution of the bacteria are introduced into 500 ml of agar and from that organism-containing agar plates of about 15 ml of medium are poured. […] After the agar plates have cooled and solidified, wells are punched in the agar (diameter 10 mm) and 100 μl of test substance solution are introduced into each well. After incubation of the plates, the diameters of the growth-free inhibiting areolas in the agar are determined.

[9] = system: Escherichia coli NCTC 8196; experiment: Agar diffusion test; note: values in mm; details: E. coli NCTC 8196
Experimental: as §4

[10] = system: Pseudomonas aeruginosa ATCC 15 442; experiment: Agar diffusion test; note: values in mm; details: P. aeruginosa ATCC 15 442
Experimental: as §4

[11] = system: Staphylococcus aureus ATCC 9144; experiment: Agar diffusion test; note: values in mm; details: S. aureus ATCC 9144
Experimental: as §4

[12] = system: Aspergillus niger ATCC 6275; experiment: Agar diffusion test; note: values in mm; details: A. niger ATCC 6275
Experimental: Determination of antimicrobial activity in the agar diffusion test [table] After the bacteria precultures have been incubated, they are diluted 1:100 with dilution medium. 3.5 ml of that dilution of the bacteria are introduced into 500 ml of agar and from that organism-containing agar plates of about 15 ml of medium are poured. The test substances are dissolved in a suitable solvent in final concentrations of 1-3%. After the agar plates have cooled and solidified, wells are punched in the agar (diameter 10 mm) and 100 μl of test substance solution are introduced into each well. After incubation of the plates, the diameters of the growth-free inhibiting areolas in the agar are determined.

[13] = 1% in ethanol, C. albicans ATCC 10231
[14] = 2% in ethanol, C. albicans ATCC 10231

MIC ([1]; solution in EtOH) | MIC ([2]; solution in EtOH) | MIC ([3]; solution in EtOH) | MIC ([4]; solution in EtOH) | MIC ([5]; solution in EtOH) | MIC ([6]; solution in EtOH) | MIC ([7]; solution in EtOH) | SMILES | Inhibiting areola diameter [8, 13] | Inhibiting areola diameter [8, 14] | Inhibiting areola diameter ([9]; 1% in ethanol) | Inhibiting areola diameter ([9]; 2% in ethanol) | Inhibiting areola diameter ([11]; 1% in ethanol) | Inhibiting areola diameter ([11]; 2% in ethanol) | Inhibiting areola diameter ([12]; 1% in ethanol) | Inhibiting areola diameter ([12]; 2% in ethanol) | also measured
100 ppm | 100 ppm | 250 ppm | 1000 ppm | 1000 ppm | 100 ppm | 100 ppm | O=c1oc(-c2ccccc2O)ns1 [compound 101] |  |  |  |  |  |  |  |  | 
600 ppm | 100 ppm | 200 ppm | 600 ppm | 600 ppm | 100 ppm | 100 ppm | O=c1oc(-c2cccnc2)ns1 [compound 103] |  |  |  |  |  |  |  |  | 
 |  |  |  |  |  |  | O=c1oc(-c2ccc([N+](=O)[O-])o2)ns1 [compound 105] |  |  |  |  |  |  |  |  | Inhibiting areola diameter ([8]; 0.1% in THF, C. albicans ATCC 10 231): 3/3; Inhibiting areola diameter ([8]; 0.5% in THF, C. albicans ATCC 10 231): 4/4; Inhibiting areola diameter ([8]; 1.0% in THF, C. albicans ATCC 10 231): 8/8; Inhibiting areola diameter ([8]; 3.0% in THF, C. albicans ATCC 10 231): 9/9; Inhibiting areola diameter ([9]; 0.1% in THF): 1/1; Inhibiting areola diameter ([9]; 0.5% in THF): 3/3; Inhibiting areola diameter ([9]; 1.0% in THF): 6/6; Inhibiting areola diameter ([9]; 3.0% in THF): 6/6; Inhibiting areola diameter ([10]; 0.1% in THF): 0/0; Inhibiting areola diameter ([10]; 0.5% in THF): 1/1; Inhibiting areola diameter ([10]; 1.0% in THF): 5/5; Inhibiting areola diameter ([10]; 3.0% in THF): 6/6; Inhibiting areola diameter ([11]; 0.1% in THF): 4/4; Inhibiting areola diameter ([11]; 0.5% in THF): 10/10; Inhibiting areola diameter ([11]; 1.0% in THF): 11/11; Inhibiting areola diameter ([11]; 3.0% in THF): 11/11
 |  |  |  |  |  |  | O=c1oc(-c2ccccc2)ns1 [compound 106] |  |  |  |  |  |  |  |  | MIC ([1]; solution in DMSO): 250 ppm; MIC ([2]; solution in DMSO): 100 ppm; MIC ([3]; solution in DMSO): 10 ppm; MIC ([4]; solution in DMSO): 100 ppm; MIC ([5]; solution in DMSO): 1000 ppm; MIC ([6]; solution in DMSO): 10 ppm; MIC ([7]; solution in DMSO): 10 ppm
 |  |  |  |  |  |  | O=c1oc(-c2ccc(Cl)cc2)ns1 [compound 107] | 3/3 | 4/4 | 1/1 | 1/1 | 4/4 | 5/5 | 0/0 | 0/0 | 
 |  |  |  |  |  |  | Cc1nsc(=O)o1 [compound 108] | 8/8 | 10/10 | 1/1 | 3/2 | 12/12 | 20/20 | 4/5 | 12/12 | 
